For assay [1], the system named is human bronchi submucosal glands. As to the kind of experiment: Airway submucosal gland fluid secretion in human bronchi. The settings on record: serosal application; 300 nM carbachol, 20 μM Eact. Here is the method:
FIG. 6A-C. Airway submucosal gland fluid secretion in human bronchi. FIG. 6A. TMEM16A immunohistochemistry in CF (left) and non-CF (right) human bronchi showing apical membrane expression in serous gland epithelial cells (arrows). Scale bar: 20 μm. FIG. 6B. Mucous (fluid) secretion in human bronchi. (top) Images of mucus bubbles formed under oil in response to basolateral application of 300 nM carbachol (CCh) and 20 μM Eact. TMEM16A was inhibited by 30 μM T16Ainh-A01. Individual fluid bubbles marked with arrowheads. Scale bar: 0.5 mm. (bottom) CCh and Eact-induced secretion rates. Where indicated, tissues were pre-treated with T16Ainh-A01 (30 μM). Each point is the average of measurements made from 20 glands (mean±S.E. * P<0.05). FIG. 6C. Summary of human gland fluid secretion rates measured at 20 min after addition of 20 μM Eact, and 30 min after application of 300 nM carbachol (CCh) and 10 μM forskolin (20-66 glands from 3 tracheas and 4 bronchus). In CF-bronchi, 6 glands from one donor were stimulated by Eact. […]
Similar staining was found in non-CF and CF human bronchi. Fluid secretion was measured in individual submucosal glands from the increasing size of mucus (fluid) bubbles in which airway fragments were mounted in a 37° C. perfusion chamber and the mucosal solution was covered with oil.

Assay [2] concerns mouse ileal smooth muscle. As to the kind of experiment: Intestinal smooth muscle contraction, ex vivo mouse ileal segments. The settings on record: carbachol 1 μM. Here is the method: FIG. 8A-C. Intestinal smooth muscle contraction. FIG. 8A. Representative traces from mouse ileal segments showing effects of T16Ainh-A01 (10 μM), carbachol (CCh, 1 μM) and Eact (10 μM). FIG. 8B. Effect of CCh (1 μM) and Eact (10 μM) following atropine (1 μM). FIG. 8C. Summary of contraction frequency (left), and resting and maximum tone (right) (mean±S.E., n=4-7, * P<0.05).
Wild type CD1 mice (age 8-10 weeks) were killed by avertin overdose (200 mg/kg). The ileum removed and washed with ice-cold HCO3^−-buffered solution. The ends of the ileal segments were tied with silk thread and connected to a force transducer. Beal segments were equilibrated for 60 min with a resting force of ˜1 mN, with changes of the bathing solution every 15 min. Tension was monitored continuously with a fixed-range precision force transducer (TSD, 125 C; Biopac, Goleta, Calif.) connected to a differential amplifier (DA 100B; Biopac). Data were recorded using MP100, Biopac digital acquisition system and analyzed using Acknowledge 3.5.7 software.
TMEM16A in expressed in the interstitial cells of Cajal, the pacemaker cells that control smooth muscle contraction dynamics in stomach and intestine (Huang et al., supra; Gomez-Pinilla et al. (2009) Am. J. Physiol. Gastrointest. Liver Physiol. 296, G1370-1381). The effect of Eact on mouse ileal smooth muscle contraction was investigated using an ex vivo intestinal preparation. […] Without wishing to be bound by theory, the constitutive TMEM16A activity in this ex vivo preparation could obscure Eact activity. To reveal Eact effects, atropine was first added to inhibit basal contractions. […] FIG. 8C summarizes data on contraction frequency, resting tone and maximal tone.

Assay [3] deals with CF human bronchial epithelial (CF HBE) cells. As to the kind of experiment: Short-circuit current in CF HBE cells. The assay is classed as cell-based. Conditions: no IL-4; UTP 100 μM. Here is the method: FIG. 5A-B. Airway epithelial chloride secretion. FIG. 5A. Short-circuit current in CF HBE cells. Eact and UTP (100 μM) were added in control (left) and IL-4 (10 ng/ml, 24 h, middle) treated CF HBE cells. (right) Summary of Eact-induced, T16Ainh-A01-sensitive peak current (mean±S.E., n=6-8, * P<0.05). ENaC was inhibited by 10 μM amiloride. FIG. 5B. Eact (10 μM) and UTP (100 μM) induced CaCC Cl^− current measured in primary cultures of non-CF human tracheal gland (HTG) serous cells. (left and gmiddle) TMEM16A, CFTR and ENaC were inhibited by pretreatment with T16Ainh-A01, CFTRinh-172 and amiloride, respectively. Inset: TMEM16A immunoblot in whole cell homogenates of CF HBE and HTG cells. (right) Summary of UTP and Eact-induced peak current in the presence and absence of T16Ainh-A01 (mean±S.E., n=3, * P<0.05).
Tracheal and bronchial tissues were obtained from non-CF and CF patients following lung transplantation or from postmortem examinations performed within 24 h after death. […]
Snapwell inserts containing TMEM16A-expressing FRT, HBE, CF HBE or HTG cells were mounted in Ussing chambers (Physiologic Instruments, San Diego, Calif.). […] Apical membrane current (for FRT cells) and short-circuit current were measured using an EVC4000 Multi-Channel V/I Clamp (World Precision Instruments, Sarasota, Fla.) and recorded using PowerLab/8sp (AD Instruments, Castle Hill, Australia).

Assay [4] deals with non-CF human tracheal gland (HTG) serous cells. As to the kind of experiment: Short-circuit current in human tracheal gland (HTG) serous cells. The assay is classed as cell-based. The settings on record: Eact 10 μM, UTP 100 μM. Here is the method: FIG. 5A-B. Airway epithelial chloride secretion. FIG. 5A. Short-circuit current in CF HBE cells. Eact and UTP (100 μM) were added in control (left) and IL-4 (10 ng/ml, 24 h, middle) treated CF HBE cells. (right) Summary of Eact-induced, T16Ainh-A01-sensitive peak current (mean±S.E., n=6-8, * P<0.05). ENaC was inhibited by 10 μM amiloride. FIG. 5B. Eact (10 μM) and UTP (100 μM) induced CaCC Cl^− current measured in primary cultures of non-CF human tracheal gland (HTG) serous cells. (left and gmiddle) TMEM16A, CFTR and ENaC were inhibited by pretreatment with T16Ainh-A01, CFTRinh-172 and amiloride, respectively. Inset: TMEM16A immunoblot in whole cell homogenates of CF HBE and HTG cells. (right) Summary of UTP and Eact-induced peak current in the presence and absence of T16Ainh-A01 (mean±S.E., n=3, * P<0.05). […]
Snapwell inserts containing TMEM16A-expressing FRT, HBE, CF HBE or HTG cells were mounted in Ussing chambers (Physiologic Instruments, San Diego, Calif.). […] Apical membrane current (for FRT cells) and short-circuit current were measured using an EVC4000 Multi-Channel V/I Clamp (World Precision Instruments, Sarasota, Fla.) and recorded using PowerLab/8sp (AD Instruments, Castle Hill, Australia). […]

Take `C[N+](C)(C)CCOC(N)=O` [carbachol]: the “gland fluid secretion rate” value in assay [1] is given as “significantly increased secretion”. Besides, the contraction frequency result in assay [2] is recorded as “without change in contraction frequency”. Moreover, the “resting and maximum tone” value in assay [2] (Eact 10 μM, no atropine) is given as “increased”.

Take `O=c1ccn([C@@H]2O[C@H](COP(=O)(O)OP(=O)(O)OP(=O)(O)O)[C@@H](O)[C@H]2O)c(=O)[nH]1` [UTP, reference compound]: in assay [3], the “Cl^− current in untreated CF bronchial epithelial cells” value was “produced a large Cl^− current”. Further, in assay [4], the “Cl^− current in HTG serous cells” value is “increased Cl^− current”.

(Values after patent US9790218B2, “Small molecule activators of calcium-activated chloride channels and methods of use” (The Regents of the University of California, priority 2011, dated 2017).)
